Source: patent US8501783B2, “Conformationally restricted urea inhibitors of soluble epoxide hydrolase” (The Regents of the University of California, priority 2006, dated 2013)
Read-outs that look alike come from different tables or passages of the source.

Assays:
human sEH = human sEH (Homo sapiens (Human), UniProt P34913); assay: Inhibition of human soluble epoxide hydrolase (IC50; one of three substrate methods); assay type: biochemical;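 further: enzyme expressed in baculovirus and affinity-purified, assays run in triplicate, with substrate and read-out differing among the three methods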
Chain of human sEH (P34913 whole entry): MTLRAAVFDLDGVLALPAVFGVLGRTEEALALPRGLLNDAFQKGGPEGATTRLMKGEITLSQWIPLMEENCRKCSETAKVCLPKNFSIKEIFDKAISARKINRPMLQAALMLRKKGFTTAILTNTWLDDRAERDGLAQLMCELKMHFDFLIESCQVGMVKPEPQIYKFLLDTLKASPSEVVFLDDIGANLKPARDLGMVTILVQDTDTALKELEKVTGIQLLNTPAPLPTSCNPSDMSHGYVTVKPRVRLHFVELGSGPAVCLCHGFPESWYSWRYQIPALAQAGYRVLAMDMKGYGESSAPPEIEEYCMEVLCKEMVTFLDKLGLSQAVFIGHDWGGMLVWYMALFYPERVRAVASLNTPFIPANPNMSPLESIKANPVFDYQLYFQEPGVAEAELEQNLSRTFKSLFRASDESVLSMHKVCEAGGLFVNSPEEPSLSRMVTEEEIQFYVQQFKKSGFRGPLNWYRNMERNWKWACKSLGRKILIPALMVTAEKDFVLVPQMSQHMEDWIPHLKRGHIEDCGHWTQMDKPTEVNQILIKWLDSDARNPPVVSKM

[1] = Solubility in oil of the dosing preparation (compound in Crisco); assay type: physicochemical; settings: appearance in oil, in parentheses after compound number
Source text: The dogs are fed immediately thereafter.

[2] = Pharmacokinetic screening in dogs, oral administration, plasma LC-MS/MS; settings: for AUC: dog, plasma, po; for AUCINF_D_pred: dose-normalised; for LC/MS analysis, plasma level at time 0 / LC/MS analysis, plasma level at time 15 / LC/MS analysis, plasma level at time 30 / LC/MS analysis, plasma level at time 60 / LC/MS analysis, plasma level at time 120 / LC/MS analysis, plasma level at time 180 / LC/MS analysis, plasma level at time 240 / LC/MS analysis, plasma level at time 300 / LC/MS analysis, plasma level at time 360 / LC/MS analysis, plasma level at time 480 / LC/MS analysis, plasma level at time 1440: single oral dose (0.3 mg/kg per FIG. 1)

CCC(=O)N1CCC(NC(=O)NC23CC4CC(CC(C4)C2)C3)CC1 [Compound 1163, N-(1-propionylpiperidin-4-yl)-N′-(adamant-1-yl)urea]
IC50 (human sEH): 3.19 nM
solubility in oil [1]: 1163 (Opaque)
AUC ([2]; 0.3 mg/kg): 0.0933 µM·h
AUCINF_D_pred ([2]; dogs, oral): 18504 kg·nM·min/mg
LC/MS analysis, plasma level at time 0 ([2]; dogs, time 0 min): 0.00
LC/MS analysis, plasma level at time 15 ([2]; dogs, time 15 min): 5.70
LC/MS analysis, plasma level at time 30 ([2]; dogs, time 30 min): 16.05
LC/MS analysis, plasma level at time 60 ([2]; dogs, time 60 min): 31.79
LC/MS analysis, plasma level at time 120 ([2]; dogs, time 120 min): 24.00
LC/MS analysis, plasma level at time 180 ([2]; dogs, time 180 min): 14.55
LC/MS analysis, plasma level at time 240 ([2]; dogs, time 240 min): 10.05
LC/MS analysis, plasma level at time 300 ([2]; dogs, time 300 min): 7.20
LC/MS analysis, plasma level at time 360 ([2]; dogs, time 360 min): 4.95
LC/MS analysis, plasma level at time 480 ([2]; dogs, time 480 min): 1.50
LC/MS analysis, plasma level at time 1440 ([2]; dogs, time 1440 min): 0.00

COC(=O)CCCC(=O)N1CCC(NC(=O)NC23CC4CC(CC(C4)C2)C3)CC1 [Compound 1206, 5-[4-(3-Adamantan-1-yl-ureido)-piperidin-1-yl]-5-oxo-pentanoic acid methyl ester]
IC50 (human sEH; recombinant human sEH): 2.7 nM
solubility in oil [1]: 1206 (Opaque)
LC/MS analysis, plasma level at time 0 ([2]; dogs, time 0 min): 0.00
LC/MS analysis, plasma level at time 15 ([2]; dogs, time 15 min): 0.00
LC/MS analysis, plasma level at time 30 ([2]; dogs, time 30 min): 0.00
LC/MS analysis, plasma level at time 60 ([2]; dogs, time 60 min): 0.00
LC/MS analysis, plasma level at time 120 ([2]; dogs, time 120 min): 0.00
LC/MS analysis, plasma level at time 180 ([2]; dogs, time 180 min): 0.00
LC/MS analysis, plasma level at time 240 ([2]; dogs, time 240 min): 0.00
LC/MS analysis, plasma level at time 300 ([2]; dogs, time 300 min): 0.00
LC/MS analysis, plasma level at time 360 ([2]; dogs, time 360 min): 0.00
LC/MS analysis, plasma level at time 480 ([2]; dogs, time 480 min): 0.00
LC/MS analysis, plasma level at time 1440 ([2]; dogs, time 1440 min): 0.00

O=C(NC1CCN(C(=O)c2ccccc2)CC1)NC12CC3CC(CC(C3)C1)C2 [Compound 1159, N-(1-benzoylpiperidin-4-yl)-N′-(adamant-1-yl)urea]
IC50 (human sEH; recombinant human sEH): 1.3 nM
solubility in oil [1]: 1159 (Opaque)
LC/MS analysis, plasma level at time 0 ([2]; dogs, time 0 min): 0.00
LC/MS analysis, plasma level at time 15 ([2]; dogs, time 15 min): 7.26
LC/MS analysis, plasma level at time 30 ([2]; dogs, time 30 min): 7.82
LC/MS analysis, plasma level at time 60 ([2]; dogs, time 60 min): 4.58
LC/MS analysis, plasma level at time 120 ([2]; dogs, time 120 min): 1.39
LC/MS analysis, plasma level at time 180 ([2]; dogs, time 180 min): 0.60
LC/MS analysis, plasma level at time 240 ([2]; dogs, time 240 min): 0.00
LC/MS analysis, plasma level at time 300 ([2]; dogs, time 300 min): 0.00
LC/MS analysis, plasma level at time 360 ([2]; dogs, time 360 min): 0.00
LC/MS analysis, plasma level at time 480 ([2]; dogs, time 480 min): 0.00
LC/MS analysis, plasma level at time 1440 ([2]; dogs, time 1440 min): 0.00

O=C(NC1CCN(C(=O)c2ccccn2)CC1)NC12CC3CC(CC(C3)C1)C2 [Compound 1201, N-(1-(Pyridine-2-carbonyl)piperidin-4-yl)-N′-(adamant-1-yl)urea]
IC50 (human sEH; recombinant human sEH): 1.2 nM
solubility in oil [1]: 1201 (Suspension)
AUC ([2]; 0.3 mg/kg): 0.08 µM·h
AUCINF_D_pred ([2]; dogs, oral): 16100 kg·nM·min/mg
LC/MS analysis, plasma level at time 0 ([2]; dogs, time 0 min): 0.00
LC/MS analysis, plasma level at time 15 ([2]; dogs, time 15 min): 9.19
LC/MS analysis, plasma level at time 30 ([2]; dogs, time 30 min): 32.65
LC/MS analysis, plasma level at time 60 ([2]; dogs, time 60 min): 42.48
LC/MS analysis, plasma level at time 120 ([2]; dogs, time 120 min): 21.09
LC/MS analysis, plasma level at time 180 ([2]; dogs, time 180 min): 7.15
LC/MS analysis, plasma level at time 240 ([2]; dogs, time 240 min): 3.16
LC/MS analysis, plasma level at time 300 ([2]; dogs, time 300 min): 1.72
LC/MS analysis, plasma level at time 360 ([2]; dogs, time 360 min): 0.00
LC/MS analysis, plasma level at time 480 ([2]; dogs, time 480 min): 0.00
LC/MS analysis, plasma level at time 1440 ([2]; dogs, time 1440 min): 0.00

CC(=O)N1CCC(NC(=O)NC23CC4CC(CC(C4)C2)C3)CC1 [Compound 1153, N-(1-acetylpiperidin-4-yl)-N′-(adamant-1-yl)urea]
solubility in oil [1]: 1153 (Opaque)
AUC ([2]; 0.3 mg/kg): 0.597 µM·h
plasma level, in solution at 0.1 mg/kg dose, time 0 ([2]; dogs, oral, 0.1 mg/kg, time 0 min): 0.31
plasma level, in solution at 0.1 mg/kg dose, time 15 ([2]; dogs, oral, 0.1 mg/kg, time 15 min): 5.33
plasma level, in solution at 0.1 mg/kg dose, time 30 ([2]; dogs, oral, 0.1 mg/kg, time 30 min): 19.59
plasma level, in solution at 0.1 mg/kg dose, time 60 ([2]; dogs, oral, 0.1 mg/kg, time 60 min): 56.74
plasma level, in solution at 0.1 mg/kg dose, time 120 ([2]; dogs, oral, 0.1 mg/kg, time 120 min): 106.43
plasma level, in solution at 0.1 mg/kg dose, time 180 ([2]; dogs, oral, 0.1 mg/kg, time 180 min): 100.94
plasma level, in solution at 0.1 mg/kg dose, time 240 ([2]; dogs, oral, 0.1 mg/kg, time 240 min): 75.71
plasma level, in solution at 0.1 mg/kg dose, time 300 ([2]; dogs, oral, 0.1 mg/kg, time 300 min): 44.51
plasma level, in solution at 0.1 mg/kg dose, time 360 ([2]; dogs, oral, 0.1 mg/kg, time 360 min): 29.15
plasma level, in solution at 0.1 mg/kg dose, time 480 ([2]; dogs, oral, 0.1 mg/kg, time 480 min): 13.01
plasma level, in solution at 0.1 mg/kg dose, time 1440 ([2]; dogs, oral, 0.1 mg/kg, time 1440 min): 0.00
plasma level, in solution at 0.3 mg/kg dose, time 0 ([2]; dogs, oral, 0.3 mg/kg, time 0 min): 0.00
plasma level, in solution at 0.3 mg/kg dose, time 15 ([2]; dogs, oral, 0.3 mg/kg, time 15 min): 288.97
plasma level, in solution at 0.3 mg/kg dose, time 30 ([2]; dogs, oral, 0.3 mg/kg, time 30 min): 276.16
plasma level, in solution at 0.3 mg/kg dose, time 60 ([2]; dogs, oral, 0.3 mg/kg, time 60 min): 241.03
plasma level, in solution at 0.3 mg/kg dose, time 120 ([2]; dogs, oral, 0.3 mg/kg, time 120 min): 107.19
plasma level, in solution at 0.3 mg/kg dose, time 180 ([2]; dogs, oral, 0.3 mg/kg, time 180 min): 56.41
plasma level, in solution at 0.3 mg/kg dose, time 240 ([2]; dogs, oral, 0.3 mg/kg, time 240 min): 26.42
plasma level, in solution at 0.3 mg/kg dose, time 300 ([2]; dogs, oral, 0.3 mg/kg, time 300 min): 20.81
plasma level, in solution at 0.3 mg/kg dose, time 360 ([2]; dogs, oral, 0.3 mg/kg, time 360 min): 10.10
plasma level, in solution at 0.3 mg/kg dose, time 480 ([2]; dogs, oral, 0.3 mg/kg, time 480 min): 4.66
plasma level, in solution at 0.3 mg/kg dose, time 1440 ([2]; dogs, oral, 0.3 mg/kg, time 1440 min): 0.00
AUCINF_D_pred ([2]; dogs, oral): 119214 kg·nM·min/mg
LC/MS analysis, plasma level at time 0 ([2]; dogs, time 0 min): 0.00
LC/MS analysis, plasma level at time 15 ([2]; dogs, time 15 min): 288.97
LC/MS analysis, plasma level at time 30 ([2]; dogs, time 30 min): 276.16
LC/MS analysis, plasma level at time 60 ([2]; dogs, time 60 min): 2411.03
LC/MS analysis, plasma level at time 120 ([2]; dogs, time 120 min): 107.19
LC/MS analysis, plasma level at time 180 ([2]; dogs, time 180 min): 56.41
LC/MS analysis, plasma level at time 240 ([2]; dogs, time 240 min): 26.42
LC/MS analysis, plasma level at time 300 ([2]; dogs, time 300 min): 20.81
LC/MS analysis, plasma level at time 360 ([2]; dogs, time 360 min): 10.10
LC/MS analysis, plasma level at time 480 ([2]; dogs, time 480 min): 4.66
LC/MS analysis, plasma level at time 1440 ([2]; dogs, time 1440 min): 0.00

CC(=O)N1CCC(NC(=O)Nc2ccc(OC(F)(F)F)cc2)CC1 [Compound 1555, 1-(1-Acetyl-piperidin-4-yl)-3-(4-trifluoromethoxy-phenyl)-urea]
solubility in oil [1]: 1555 (Opaque)
AUC ([2]; 0.3 mg/kg): 6.5 µM·h
AUCINF_D_pred ([2]; dogs, oral): 13002825 kg·nM·min/mg
LC/MS analysis, plasma level at time 0 ([2]; dogs, time 0 min): 0.00
LC/MS analysis, plasma level at time 15 ([2]; dogs, time 15 min): 16.07
LC/MS analysis, plasma level at time 30 ([2]; dogs, time 30 min): 45.76
LC/MS analysis, plasma level at time 60 ([2]; dogs, time 60 min): 100.35
LC/MS analysis, plasma level at time 120 ([2]; dogs, time 120 min): 216.91
LC/MS analysis, plasma level at time 180 ([2]; dogs, time 180 min): 260.79
LC/MS analysis, plasma level at time 240 ([2]; dogs, time 240 min): 268.90
LC/MS analysis, plasma level at time 300 ([2]; dogs, time 300 min): 302.64
LC/MS analysis, plasma level at time 480 ([2]; dogs, time 480 min): 320.45
LC/MS analysis, plasma level at time 1440 ([2]; dogs, time 1440 min): 266.29
